Source: patent US8486991B2, “Enantiomerically pure phosphoindoles as HIV inhibitors” (Idenix Pharmaceuticals, Inc., priority 2006, dated 2013)
Where two headings read alike, the source gives them in different places.

Tests used:
[1] = Compound depletion in hepatocytes, human; format: in vitro ADME; conditions: up to 2 hours; for t½, Compound Depletion in Hepatocytes, Human: 1 μM; for half-life at 1 μM: human, read-out: t½, Compound Depletion in Hepatocytes, Human
Protocol: Fresh hepatocytes were plated onto collagen-coated plates and exposed to test compounds at 1 μM for up to 2 hours. Tissue culture medium was assayed for compound depletion by LC/MS detection. Values in Table 23 represent independent experiments from 5 to 7 donors.

[2] = system: HIV-1 BH10 K103N mutant virus; assay: microbe, parasite or virus in culture; format: cell-based; conditions: for Fold Change, K103N: Table 9, CPE
Protocol: The activity of the compounds was also assessed with the same virus and cell type using a different assay readout based on cytopathic effect (CPE).
MT-4 cells (Source: NIH Catalog #120) were seeded onto 96-well cell culture plates (1×10^4 cells per well in 50 μL).
The final DMSO concentration in the assay was 0.5% in 120 μL. Cell cultures were then incubated at 37° C./5% CO2 for 4 days. Then, Cell Titer 96 AQueous One Solution Cell Proliferation Assay (Promega) was used to measure cell viability. Briefly, the One Solution Reagent was added directly to culture wells (20 μL/well), incubated for 5 hours, and the absorbance was recorded at 492 nm using the Sunrise Tecan Spectrophotometer.
The EC50 values were determined from the percent inhibition versus concentration data using a sigmoidal non-linear regression analysis based on four parameters with Tecan Magellan software.

[3] = target: T1, human DNA polymerase alpha (Homo sapiens, UniProt P09884); assay: Human cellular DNA polymerase alpha assay; format: biochemical
T1 sequence (P09884 1-1462): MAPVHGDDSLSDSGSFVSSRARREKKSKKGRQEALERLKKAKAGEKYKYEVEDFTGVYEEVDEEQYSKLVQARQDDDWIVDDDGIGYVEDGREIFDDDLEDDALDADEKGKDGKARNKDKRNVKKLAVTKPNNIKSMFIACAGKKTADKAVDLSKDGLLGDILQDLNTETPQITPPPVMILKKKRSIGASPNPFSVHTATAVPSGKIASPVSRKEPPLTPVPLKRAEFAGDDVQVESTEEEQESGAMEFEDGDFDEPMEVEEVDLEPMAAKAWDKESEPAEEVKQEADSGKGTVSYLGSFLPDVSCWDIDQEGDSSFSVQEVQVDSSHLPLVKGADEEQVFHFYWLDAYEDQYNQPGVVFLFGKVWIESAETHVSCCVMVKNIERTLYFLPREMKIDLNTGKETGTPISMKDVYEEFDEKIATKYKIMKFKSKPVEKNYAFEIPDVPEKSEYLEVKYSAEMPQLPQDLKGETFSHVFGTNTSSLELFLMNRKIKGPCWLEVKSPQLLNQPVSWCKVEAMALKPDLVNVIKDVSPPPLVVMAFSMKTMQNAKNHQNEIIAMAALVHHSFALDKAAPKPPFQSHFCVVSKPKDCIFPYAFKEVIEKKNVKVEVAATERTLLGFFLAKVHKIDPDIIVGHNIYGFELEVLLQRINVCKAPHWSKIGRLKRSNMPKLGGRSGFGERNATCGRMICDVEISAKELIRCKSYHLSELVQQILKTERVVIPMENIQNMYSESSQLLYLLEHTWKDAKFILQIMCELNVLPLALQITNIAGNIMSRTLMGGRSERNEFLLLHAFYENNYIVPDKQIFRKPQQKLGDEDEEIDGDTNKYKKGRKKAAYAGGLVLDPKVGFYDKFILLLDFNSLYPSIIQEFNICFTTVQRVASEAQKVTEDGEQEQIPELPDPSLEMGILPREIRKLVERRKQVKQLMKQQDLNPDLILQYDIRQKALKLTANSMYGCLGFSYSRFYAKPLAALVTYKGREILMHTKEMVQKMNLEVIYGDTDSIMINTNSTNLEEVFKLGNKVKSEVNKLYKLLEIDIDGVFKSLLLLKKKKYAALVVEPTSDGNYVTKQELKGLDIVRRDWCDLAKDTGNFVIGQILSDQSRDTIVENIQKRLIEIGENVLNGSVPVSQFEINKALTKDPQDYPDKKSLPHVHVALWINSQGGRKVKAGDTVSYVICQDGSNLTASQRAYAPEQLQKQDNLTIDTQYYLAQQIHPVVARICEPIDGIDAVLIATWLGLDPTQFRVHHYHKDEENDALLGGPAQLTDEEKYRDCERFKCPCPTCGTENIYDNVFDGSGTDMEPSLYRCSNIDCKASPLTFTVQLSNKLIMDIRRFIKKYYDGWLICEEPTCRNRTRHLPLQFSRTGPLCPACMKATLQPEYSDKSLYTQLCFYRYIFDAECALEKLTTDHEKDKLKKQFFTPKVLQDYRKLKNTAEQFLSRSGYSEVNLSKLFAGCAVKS
Excerpt: HIV RT, like other viral polymerase, shares limited structural homology with the cellular DNA polymerases responsible for normal nuclear and mitochondrial DNA synthesis and repair. This raises the formal possibility that inhibitors of HIV RT might inhibit cellular polymerases, resulting in cellular toxicity. In particular, inhibition of polymerase gamma has the potential to result in mitochondrial toxicity. The ability of Compound I and Compound III to inhibit cellular DNA polymerases was assessed using standard in vitro assays (Table 5).

HIV-1 W.T. (BH10) virus = assay: PBMC cell assay, W.T. (BH10); format: cell-based
[4] = Plasma protein binding by equilibrium dialysis, rat; format: in vitro ADME; conditions: for fraction unbound: rat, read-out: Percentage Plasma Protein Binding, Rats
Protocol: The in vitro plasma protein binding of compound I and compound III in rat, dog, monkey and human plasma was determined by equilibrium dialysis. Protein binding was assessed by equilibrium dialysis using rat, dog, monkey and human plasma. Samples were assayed by HPLC with LC-MS/MS detection. Plasma protein binding was high (>99%) for all species and for both compounds.

in vitro = assay: in vitro
Protocol: Cell viability was determined via MTT staining.

[5] = Cellular cytotoxicity, 4 days, MTS, MT-2; format: cell-based; conditions: human, Table 21, read-out: Average CC50 Values ± Standard Deviation, MT-2
Protocol: Cell viability was measured by standard MTT or MTS staining.
Following drug exposure for 4 days, cell viability was measured by MTS staining and CC50 values were determined. Drug concentrations ranged from 0.005 μM to 100 μM.

[6] = Human immunodeficiency virus 1, MT4, read-out: Average EC50 Values ± Standard Deviation, K103N
[7] = Human immunodeficiency virus 1, MT4, read-out: EC50, K103N
[8] = Human immunodeficiency virus 1, PBMC, read-out: Average EC50 Values ± Standard Deviation, W.T. (BH10)
[9] = Human immunodeficiency virus 1, PBMC, read-out: mean EC50, BH-10 strain in human PBMC
[10] = Table 5, read-out: Average IC50 Values ± Standard Deviation, DNA Pol Alpha

Structure (SMILES): CO[P@](=O)(c1cc(C)cc(/C=C/C#N)c1)c1c(C(N)=O)[nH]c2ccc(Cl)c(F)c12 [Compound I, (2-Carbamoyl-5-chloro-4-fluoro-1H-indol-3-yl)-[3-((E)-2-cyano-vinyl)-5-methyl-phenyl]-(R)-phosphinic acid methyl ester]
- t½, Compound Depletion in Hepatocytes, Human [1]: limited in vitro metabolism
- half-life at 1 μM ([1]; hepatocytes): 3.58 ± 0.8 h
- EC50 [2, 6]: 0.0003 ± 0.0001 µM
- EC50 [2, 7]: 0.00026 ± 5.7e-05 µM
- Fold Change, K103N [2]: 1.0 ± 0.3 fold
- IC50 ([3]; Average IC50 Values ± Standard Deviation, DNA Pol Alpha, Table 5): 146 ± 44.5 µM
- IC50 ([3]; Mean IC50 Values ± Standard Deviation, DNA Pol Alpha, Table 6, N=4): 146 ± 44.5 µM
- Average IC50 Values ± Standard Deviation, DNA Pol Alpha ([3]; Table 5): did not reach an IC50
- EC50 (HIV-1 W.T. (BH10) virus; [8]): 0.0004 ± 0.0001 µM
- EC50 (HIV-1 W.T. (BH10) virus; [9]): 0.0004 µM
- Percentage Plasma Protein Binding, Rats [4]: 99.1%
- fraction unbound ([4]; plasma): < 0.01
- CC50 at 3 days (in vitro): 52.6 µM
- CC50 at 4 days [5]: 23.5 ± 1 µM

Structure (SMILES): CO[P@](=O)(c1cc(C)cc(/C=C/C#N)c1)c1c(C(N)=O)[nH]c2ccc(Cl)cc12 [Compound III, (2-Carbamoyl-5-chloro-1H-indol-3-yl)-[3-((E)-2-cyano-vinyl)-5-methyl-phenyl]-(R)-phosphinic acid methyl ester]
- t½, Compound Depletion in Hepatocytes, Human [1]: limited in vitro metabolism
- half-life at 1 μM ([1]; fresh hepatocytes plated on collagen-coated plates): 2.08 ± 0.917 h
- EC50 [2, 6]: 0.0001 ± 0.0001 µM
- EC50 [2, 7]: 0.00014 ± 5.2e-05 µM
- Fold Change, K103N [2]: 1.1 ± 0.3 fold
- Average IC50 Values ± Standard Deviation, DNA Pol Alpha ([3]; Table 5): did not reach an IC50
- IC50 [3, 10]: 159 ± 84.3 µM
- EC50 (HIV-1 W.T. (BH10) virus; [8]): 0.0004 ± 0.0001 µM
- EC50 (HIV-1 W.T. (BH10) virus; [9]): 0.0004 µM
- Percentage Plasma Protein Binding, Rats [4]: 99.4%
- fraction unbound ([4]; rat plasma): < 0.01
- CC50 at 3 days (in vitro; human, stimulated primary blood mononuclear cells (PBMC)): 66.9 µM
- CC50 at 4 days ([5]; MT-2 cells (leukemia T cells)): 25.9 ± 2.1 µM

Structure (SMILES): O=C1Nc2ccc(Cl)cc2C(C#CC2CC2)(C(F)(F)F)O1 (stereo not shown) [EFV, 6-chloro-4-cyclopropylethynyl-4-trifluoromethyl-1,4-dihydro-2H-3,1-benzoxazin-2-one, reference compound]
- EC50 [2, 6]: 0.041 ± 0.013 µM
- Average IC50 Values ± Standard Deviation, DNA Pol Alpha ([3]; Table 5): did not reach an IC50
- IC50 [3, 10]: 109 ± 40.9 µM
- IC50 ([3]; Table 6, N=4, read-out: Mean IC50 Values ± Standard Deviation, DNA Pol Alpha): 109 ± 40.9 µM
- EC50 (HIV-1 W.T. (BH10) virus; Human immunodeficiency virus 1, Table 14, PBMC, read-out: Average EC50 Values ± Standard Deviation, W.T. (BH10)): 0.0009 ± 0.0003 µM
- CC50 at 3 days (in vitro): 70.9 ± 7.6 µM
- CC50 at 4 days ([5]; MT-2 cells (leukemia T cells)): 24.6 ± 4.5 µM
